Where two headings read alike, the source gives them in different places.

For 22 compounds, melting point and pest or weed control results are on record in patent US8916579B2, “5-fluoropyrimidinone derivatives” (Dow AgroSciences, LLC., priority 2009, dated 2014).

The subject of data set [1] is Mycosphaerella graminicola; anamorph: Septoria tritici; Bayer code SEPTTR. Description: Fungicidal activity: leaf blotch of wheat, greenhouse wheat plants (variety Yuma), percent disease control. It is filed as in vivo. The conditions noted are these: Zymoseptoria tritici. The protocol:
Evaluation of Fungicidal Activity: Leaf Blotch of Wheat (Mycosphaerella graminicola; anamorph: Septoria tritici; Bayer code SEPTTR)
Wheat plants (variety Yuma) were grown from seed in a greenhouse in 50% mineral soil/50% soil-less Metro mix until the first leaf was fully emerged, with 7-10 seedlings per pot. These plants were inoculated with an aqueous spore suspension of Septoria tritici either prior to or after fungicide treatments. After inoculation the plants were kept in 100% relative humidity (one day in a dark dew chamber followed by two to three days in a lighted dew chamber) to permit spores to germinate and infect the leaf. The plants were then transferred to a greenhouse for disease to develop.
The effectiveness of the test compounds in controlling disease was determined by assessing the severity of disease on treated plants, then converting the severity to percent control based on the level of disease on untreated, inoculated plants. • In each case of Table II the rating scale is as follows: […]

Where [2] appears, read: 24 h, One-Day Protectant (1DP), 100 ppm, wheat plants, read-out: SEPTTR 100 PPM 1DP (% Disease Control rating).
[3] abbreviates: 72 h, Three-Day Curative (3DC), 100 ppm, wheat plants, read-out: SEPTTR 100 PPM 3DC (% Disease Control rating).
Where [4] appears, read: 24 h, read-out: SEPTTR 100 PPM 1DP (% Disease Control rating).
The mark [5] stands for this setting: 72 h, read-out: SEPTTR 100 PPM 3DC (% Disease Control rating).

One may read the melting point as the temperature, or range, at which the solid turns liquid. Consider `O=c1nc(NCc2ccccc2F)c(F)cn1-c1ccsc1` [Compound 65, 5-fluoro-4-(2-fluorobenzylamino)-1-(thiophen-3-yl)pyrimidin-2(1H)-one], for which the melting point lay in the range of 75 to 78 °C. The pest or weed control at 100 ppm in data set [1] (setting [2]) lay within 0 to 25%. For the same compound, the pest or weed control at 100 ppm in data set [1] (setting [3]) lay in the range of 0 to 25%.

Take `COc1ccc(-n2cc(F)c(NCc3ccccc3F)nc2=O)cc1OC` [Compound 66]: the melting point is 206.3 to 207.9 °C. Also, the pest or weed control at 100 ppm in data set [1] (setting [2]) was 0 to 25%. In addition, in data set [1] (setting [3]), the pest or weed control at 100 ppm lay in the range of 0 to 25%.

Take `C=Cn1cc(F)c(NCc2ccccc2F)nc1=O` [Compound 67]: the melting point is 168.6 to 169.1 °C. In addition, the pest or weed control at 100 ppm in data set [1] (setting [2]) was in the range of 0 to 25%. The pest or weed control at 100 ppm in data set [1] (setting [3]) is 51 to 75%.

`Nc1nc(=O)n(CC2CCCO2)cc1F` (stereo not drawn) [Compound 76] registered a melting point of 179.2 to 181.1 °C. The pest or weed control at 100 ppm in data set [1] (setting [2]) lay in the range of 0 to 25%. In addition, the pest or weed control at 100 ppm in data set [1] (setting [3]) was in the range of 51 to 75%.

The compound `CC(C)Cn1cc(F)c(N)nc1=O` [Compound 77] showed a melting point of 140 to 142.8 °C. The pest or weed control at 100 ppm in data set [1] (setting [2]) is 26 to 50%. In data set [1] (setting [3]), the pest or weed control at 100 ppm is 0 to 25%.

`CCOC(=O)Nc1nc(=O)n(CC2CC2)cc1F` [Compound 80, ethyl 1-(cyclopropylmethyl)-5-fluoro-2-oxo-1,2-dihydropyrimidin-4-ylcarbamate]: the melting point lay in the range of 90 to 92 °C. Moreover, in data set [1] (setting [4]), the pest or weed control at 100 ppm lay in the range of 0 to 25%. In addition, the pest or weed control at 100 ppm in data set [1] (setting [5]) was in the range of 51 to 75%.

`O=C(Nc1nc(=O)n(CC2CC2)cc1F)OCc1ccccc1` [Compound 81] had a melting point of 228 to 230 °C. Also, the pest or weed control at 100 ppm in data set [1] (setting [2]) fell in the range of 26 to 50%. The pest or weed control at 100 ppm in data set [1] (setting [3]) is 76 to 100%.

Compound `O=C(Oc1ccccc1)N(C(=O)Oc1ccccc1)c1nc(=O)n(CC2CC2)cc1F` [Compound 82] came in with a melting point of 159 to 161 °C. Further, in data set [1] (setting [4]), the pest or weed control at 100 ppm fell in the range of 26 to 50%. For the same compound, in data set [1] (setting [5]), the pest or weed control at 100 ppm is 26 to 50%.

`O=C(Nc1ccccc1Cl)Nc1nc(=O)n(CC2CC2)cc1F` [Compound 85, 1-(2-chlorophenyl)-3-(1-(cyclopropylmethyl)-5-fluoro-2-oxo-1,2-dihydropyrimidin-4-yl)urea] returned a melting point of 197 to 199 °C. For the same compound, in data set [1] (setting [2]), the pest or weed control at 100 ppm lay within 0 to 25%. For the same compound, the pest or weed control at 100 ppm in data set [1] (setting [3]) was 0 to 25%.

`CSCn1cc(F)c(NC(=O)Nc2ccccc2Cl)nc1=O` [Compound 86] showed a melting point of 181.8 to 183.5 °C. Also, the pest or weed control at 100 ppm in data set [1] (setting [2]) is 26 to 50%. Besides, the pest or weed control at 100 ppm in data set [1] (setting [3]) lay within 26 to 50%.

`CCCCCNC(=O)Nc1nc(=O)n(CC2CC2)cc1F` [Compound 87] gave a melting point of 113 to 114.9 °C. Moreover, the pest or weed control at 100 ppm in data set [1] (setting [2]) was 0 to 25%. Moreover, in data set [1] (setting [3]), the pest or weed control at 100 ppm is 51 to 75%.

For the compound `Cc1ccc(NC(=O)Nc2nc(=O)n(CC3CC3)cc2F)cc1` [Compound 88], the melting point lay in the range of 205.6 to 207.5 °C. Besides, in data set [1] (setting [2]), the pest or weed control at 100 ppm was in the range of 0 to 25%. Besides, the pest or weed control at 100 ppm in data set [1] (setting [3]) was in the range of 51 to 75%.

For `CCCCCNC(=O)Nc1nc(=O)n(Cc2cccnc2)cc1F` [Compound 89], the melting point fell in the range of 146 to 147.6 °C. Moreover, in data set [1] (setting [2]), the pest or weed control at 100 ppm was in the range of 0 to 25%. Further, the pest or weed control at 100 ppm in data set [1] (setting [3]) is 26 to 50%.

Consider `Cc1ccc(NC(=O)Nc2nc(=O)n(Cc3cccnc3)cc2F)cc1` [Compound 90], for which the melting point is 178.2 to 180 °C. In addition, the pest or weed control at 100 ppm in data set [1] (setting [2]) fell in the range of 0 to 25%. In addition, the pest or weed control at 100 ppm in data set [1] (setting [3]) lay within 0 to 25%.

For `O=C(Nc1ccccc1Cl)Nc1nc(=O)n(Cc2cccnc2)cc1F` [Compound 91], the melting point lay in the range of 210.5 to 212.3 °C. Further, the pest or weed control at 100 ppm in data set [1] (setting [2]) was 0 to 25%. The pest or weed control at 100 ppm in data set [1] (setting [3]) was in the range of 0 to 25%.

In the case of `CCCCCNC(=O)Nc1nc(=O)n(CSC)cc1F` [Compound 92], the melting point was in the range of 100.2 to 101.8 °C. For the same compound, the pest or weed control at 100 ppm in data set [1] (setting [2]) lay in the range of 76 to 100%. Further, in data set [1] (setting [3]), the pest or weed control at 100 ppm is 76 to 100%.

`CSCn1cc(F)c(NC(=O)Nc2ccc(C)cc2)nc1=O` [Compound 93] showed a melting point of 188.8 to 190.2 °C. Besides, the pest or weed control at 100 ppm in data set [1] (setting [2]) fell in the range of 0 to 25%. Also, the pest or weed control at 100 ppm in data set [1] (setting [3]) is 51 to 75%.

For `O=C(Nc1nc(=O)n(CC2CCCO2)cc1F)c1ccccc1F` (stereo not drawn) [Compound 96], the melting point was 119.8 to 121.9 °C. For the same compound, the pest or weed control at 100 ppm in data set [1] (setting [2]) is 0 to 25%. Also, the pest or weed control at 100 ppm in data set [1] (setting [3]) fell in the range of 26 to 50%.

`CC(=O)Nc1nc(=O)n(CC(C)C)cc1F` [Compound 97] showed a melting point of 134.5 to 136.5 °C. The pest or weed control at 100 ppm in data set [1] (setting [2]) lay in the range of 26 to 50%. The pest or weed control at 100 ppm in data set [1] (setting [3]) was in the range of 26 to 50%.

`CC(C)Cn1cc(F)c(NC(=O)c2ccccc2F)nc1=O` [Compound 98] gave a melting point of 161.3 to 163 °C. Also, the pest or weed control at 100 ppm in data set [1] (setting [2]) lay within 0 to 25%. In addition, the pest or weed control at 100 ppm in data set [1] (setting [3]) was in the range of 0 to 25%.

With `CC(C)Cn1cc(F)c(NC(=O)c2cccs2)nc1=O` [Compound 99], the melting point was 125.6 to 127.5 °C. In addition, the pest or weed control at 100 ppm in data set [1] (setting [2]) lay in the range of 0 to 25%. The pest or weed control at 100 ppm in data set [1] (setting [3]) lay within 76 to 100%.

As to `CC(C)Cn1cc(F)c(NCc2cccs2)nc1=O` [Compound 106], the melting point lay within 88.8 to 91.7 °C. The pest or weed control at 100 ppm in data set [1] (setting [2]) was in the range of 26 to 50%. Moreover, the pest or weed control at 100 ppm in data set [1] (setting [3]) was 26 to 50%.
